The species named for data set [1] is Rattus norvegicus. As to the kind of experiment: Percent recovery after 90 min of incubation in a rat intestinal mucosa suspension at 37 degree Centigrade. Type of data set: functional, organism-based.
Data set [2] is described as follows: Net water uptake by a carrier mediated transport (%cm) mechanism. Type of data set: ADME. Conditions: buffer.
In data set [3] the test system is Rattus norvegicus. The data set is described as follows: Reduction of (+)-methamphetamine-induced rotational counts on unilateral-lesion rats at a dose of 9.60 mg/Kg after 1 h. Type of data set: functional.
For data set [4], the species on record is Rattus norvegicus. As to the kind of experiment: Dimensionless membrane permeability (Pm) from in situ single-pass rat jejunal perfusion at a concentration of 0.1 mM. Type of data set: functional, organism-based.
Data set [5] concerns Rattus norvegicus. The data set is described as follows: Reduction of (+)-methamphetamine-induced rotational counts on unilateral-lesion rats at a dose of 9.60 mg/Kg after 2 h. Type of data set: functional.
The species entered for data set [6] is Rattus norvegicus. As to the kind of experiment: Percent recovery after 2 min of incubation in a rat intestinal mucosa suspension at 37 degree Centigrade. Type of data set: functional, organism-based.
A short description of data set [7]: Percent of oral bioavailability up to 1000 mg/day. Type of data set: ADME, organism-based. The following applies: eutheria, in vivo.
Data set [8] has as its system Rattus norvegicus. As to the kind of experiment: Reduction of (+)-methamphetamine-induced rotational counts on unilateral-lesion rats at a dose of 4.20 mg/Kg after 1 h. Type of data set: functional.

Where a SMILES comes first, the peptide text is derived from it.

In the data set filed under Rattus norvegicus [1], `N[C@@H](C(=O)N1CCC[C@H]1C(=O)N[C@H](Cc1ccc(O)c(O)c1)C(=O)O)c1ccc(O)cc1` gave a Recovery of 95%. The compound further registered an Activity in data set [2] of 1.64%. Also, the Counts of rotation in the data set with Rattus norvegicus [3] is given as 223 turns hr-1; in the data set with Rattus norvegicus [5], 247 turns hr-1. The compound further yielded a Permeability in the data set filed under Rattus norvegicus [4] of 1.53.
As for `NCC(=O)N[C@@H](Cc1ccccc1)C(=O)O` (H-Gly-Phe-OH), the Recovery in the data set filed under Rattus norvegicus [6] is 19%.
Usually bioavailability stands for the share of a dose that reaches the circulation, judged against a reference dose that is usually intravenous. Read a high bioavailability as much systemic uptake. In data set [7], `N[C@@H](Cc1ccc(O)c(O)c1)C(=O)O` [LEVODOPA] returned a bioavailability of 33%. In the data set with Rattus norvegicus [8], this compound displayed a Counts of rotation of 287 turns hr-1. The Activity in data set [2] is listed as 0.03%. The Permeability in the data set listed under Rattus norvegicus [4] was 5.38.

These data come from ChEMBL document CHEMBL1128829, “Synthesis and pharmacological activities of a novel tripeptide mimetic dopamine prodrug” (Bioorg Med Chem Lett, 1995).
